# Paper PMC8200971, “Design, Synthesis, Biological Evaluation and Silico Prediction of Novel Sinomenine Derivatives” (Molecules, 2021)
# Assays:
# [1] = test system: SW480 (human colon adenocarcinoma cell lines); test: CCK8 cytotoxicity assay; format: cell-based; conditions: Homo sapiens, SW480, 60 h; for inhibition at 2.5 µM / inhibition at 25 µM: read-out: growth inhibition ratio (mean ± SD); for IC50: read-out: IC50 SW480
# Experimental: (§1) Cytotoxicity screens were performed to assess the in vitro anticancer activity of the synthesized sinomenine derivatives 6a–6l on the various cancer cell lines MCF-7, Hela, SW480, and A549, as well as on Hek293 as a normal cell line, at doses of 2.5 and 25 μM. The obtained inhibition ratios data were used to construct a heat map (Figure 3, Tables S1 and S2) in order to select compounds that exert cancer cell line-specific cytotoxicity. Then, the IC50 values of the promising compound were determined. Cisplatin was used as a reference standard. The antiproliferative activity was based on the evaluation of the percent viability using the CCK8 assay, which is a rapid and sensitive method for determining the number of viable cells in culture. In the presence of electronic coupling reagents, WST-8 can be reduced by a dehydrogenase in the mitochondria to produce a highly water-soluble orange-yellow formazan product. Its color is proportional to the proliferation of the number of viable cells and is related to cytotoxicity. Using a microplate reader to measure the OD value can indirectly reflect the number of living cells at 450 nm wavelength.
# (§2) To understand structure–function relationships, these selected compounds were subjected to subsequent analyses. All six compounds (6a and 6c–6g) were further examined to determine their IC50 concentrations on the previously mentioned cell lines, and their efficacy was compared to the reference drug cisplatin. For this, six compounds and cisplatin were evaluated on Hela, MCF-7, SW480, and A549, and on noncancerous Hek293 cell lines at various concentrations for 60 h. IC50 values were calculated (Table 2).
# (§3) The MCF-7 (human breast cancer cell lines), Hela (human cervical cancer cell lines), SW480 (human colon adenocarcinoma cell lines), A549 (human lung adenocarcinoma cell lines) and nontoxic normal cells Hek293 (human embryonic kidney cell lines) cells were used to measure the cytotoxicity of the 6a–6l. They were obtained from the Beijing Normal University (Beijing, China). The test cell lines were cultured in DMEM, IMDM, F12 and DMEM nutrient medium containing 10% heat-inactivated fetal bovine serum, […] and 100 units/mL penicillin in a humified, 5% (v/v) CO2 atmosphere at 37 °C.
# (§4) Cell viability was estimated using the CCK8 assay. Tumor cells ([…]) viz. MCF-7, Hela, SW480, A549 and nontoxic normal cells Hek293 were seeded in medium containing Corning® 96-well tissue culture plates at confluences of […], respectively, in Incucyte ZOOM. Fresh medium (100 μL) containing different concentrations of the test sample was added after 12 h of seeding. The microtiter plates were incubated at 37 °C in a humidified incubator with 5% CO2 for 60 h. Triplicates from each concentration were used. Negative control cells were incubated without sample and cisplatin as a positive control. At the end of treatment, the numbers of viable cells were determined by the CCK8 test. In brief, the media was removed from the 96 well plates and replaced with 100 μL of fresh culture medium with 10% CCK8 solution added to each well including the untreated controls. The 96 well plates were then incubated at 37 °C and 5% CO2 for 1–4 h. Then, the absorbance was measured at 450 nm using a BMG LABTECH®-POLAR star Omega microplate reader (Ortenberg, Germany) to determine the number of viable cells, and the percentage of viability was calculated as ((ODt- ODb/ODc- ODb)) × 100%, where ODt is the mean optical density of wells treated with the tested sample, ODc is the mean optical density of wells treated with DMSO and ODb is the mean optical density of PBS wells without cells. The relation between surviving cells and drug concentrations were plotted to get the survival curve of each tumor cell line after treatment with the specified compound. […]
# [2] = test system: A549 (human lung adenocarcinoma cell lines); test: CCK8 cytotoxicity assay; format: cell-based; conditions: Homo sapiens, A549, 60 h; for inhibition at 2.5 µM / inhibition at 25 µM: read-out: growth inhibition ratio (mean ± SD); for IC50: read-out: IC50 A549
# Experimental: as §1, §2, §3, §4
# [3] = test system: MCF-7 (human breast cancer cell lines); test: CCK8 cytotoxicity assay; format: cell-based; conditions: Homo sapiens, MCF7, 60 h; for inhibition at 2.5 µM / inhibition at 25 µM: read-out: growth inhibition ratio (mean ± SD); for IC50: read-out: IC50 MCF-7
# Experimental: as §1, §2, §3, §4
# [4] = test system: Hela (human cervical cancer cell lines); test: CCK8 cytotoxicity assay; format: cell-based; conditions: Homo sapiens, HeLa, 60 h; for inhibition at 2.5 µM / inhibition at 25 µM: read-out: growth inhibition ratio (mean ± SD); for IC50: read-out: IC50 Hela
# Experimental: as §1, §2, §3, §4
# [5] = test system: Hek293 (human embryonic kidney cell lines); test: CCK8 cytotoxicity assay, normal cells; format: cell-based; conditions: Homo sapiens, HEK293, 60 h; for inhibition at 2.5 µM / inhibition at 25 µM: read-out: growth inhibition ratio (mean ± SD); for IC50: read-out: IC50 Hek293
# Experimental: as §1, §2, §3, §4
SMILES,inhibition at 2.5 µM [1],inhibition at 25 µM [1],inhibition at 2.5 µM [2],inhibition at 25 µM [2],inhibition at 2.5 µM [3],inhibition at 25 µM [3],inhibition at 2.5 µM [4],inhibition at 25 µM [4],melting point,inhibition at 2.5 µM [5],inhibition at 25 µM [5],IC50 [1],IC50 [2],IC50 [3],IC50 [4],IC50 [5]
"COC1=C[C@@H]2[C@@H]3Cc4c(CN5CCCC5)cc(OC)c(OC(=O)Cc5ccc(OC)cc5)c4[C@]2(CCN3C)CC1=O [6i, (4bR,8aS,9S)-3,7-dimethoxy-11-methyl-6-oxo-1-(pyrrolidin-1-ylmethyl)-6,8a,9,10-tetrahydro-5H-9,4b-(epiminoethano)phenanthren-4-yl 2-(4-methoxyphenyl)acetate]",28.6 ± 9.02%,38.9 ± 9.65%,23.5 ± 0.76%,51.77 ± 0.5%,11.7 ± 5.99%,0%,7.79 ± 6.01%,29.2 ± 5.29%,76 to 79 °C,13.3 ± 0.21%,46.9 ± 16.7%,–,–,–,–,–
"COC1=C[C@@H]2[C@@H]3Cc4c(CN5CCCC5)cc(OC)c(OC(=O)Cc5ccc(Cl)c(Cl)c5)c4[C@]2(CCN3C)CC1=O [6g, (4bR,8aS,9S)-3,7-dimethoxy-11-methyl-6-oxo-1-(pyrrolidin-1-ylmethyl)-6,8a,9,10-tetrahydro-5H-9,4b-(epiminoethano)phenanthren-4-yl 2-(3,4-dichlorophenyl)acetate]",11.8 ± 7.5%,56 ± 5.88%,20.3 ± 0.78%,43.9 ± 1.11%,6.59 ± 4.98%,34.6 ± 2.06%,35.3 ± 4.37%,93.85 ± 0.2%,160 to 164 °C,9.72 ± 1.96%,59.9 ± 16.9%,> 25 µM,> 25 µM,> 25 µM,11.9 ± 0.6 µM,4.71 ± 0.48 µM
"COC1=C[C@@H]2[C@@H]3Cc4c(CN5CCCC5)cc(OC)c(OC(=O)Cc5ccc(Cl)cc5)c4[C@]2(CCN3C)CC1=O [6a, (4bR,8aS,9S)-3,7-dimethoxy-11-methyl-6-oxo-1-(pyrrolidin-1-ylmethyl)-6,8a,9,10-tetrahydro-5H-9,4b-(epiminoethano)phenanthren-4-yl 2-(4-chlorophenyl)acetate]",12.9 ± 6.52%,82.3 ± 4.36%,3.41 ± 0.82%,37.4 ± 0.39%,0%,85.3 ± 1.62%,7.81 ± 5.42%,88.49 ± 0.67%,162 to 165 °C,17.9 ± 1.86%,61.1 ± 4.71%,14.94 ± 0.06 µM,> 25 µM,14.3 ± 0.83 µM,11.5 ± 1.04 µM,13 ± 0.62 µM
"COC1=C[C@@H]2[C@@H]3Cc4c(CN5CCCCC5)cc(OC)c(OC(=O)Cc5ccccc5Cl)c4[C@]2(CCN3C)CC1=O [5f, (4bR,8aS,9S)-3,7-dimethoxy-11-methyl-6-oxo-1-(piperidin-1-ylmethyl)-6,8a,9,10-tetrahydro-5H-9,4b-(epiminoethano)phenanthren-4-yl 2-(2-chlorophenyl)acetate]",–,–,–,–,–,–,–,–,188 to 190 °C,–,–,–,–,–,–,–
"COC1=C[C@@H]2[C@@H]3Cc4c(CN5CCCCC5)cc(OC)c(OC(=O)Cc5ccccc5)c4[C@]2(CCN3C)CC1=O [5b, (4bR,8aS,9S)-3,7-dimethoxy-11-methyl-6-oxo-1-(piperidin-1-ylmethyl)-6,8a,9,10-tetrahydro-5H-9,4b-(epiminoethano)phenanthren-4-yl 2-phenylacetate]",–,–,–,–,–,–,–,–,192 to 194 °C,–,–,–,–,–,–,–
"COC1=C[C@@H]2[C@@H]3Cc4c(CN5CCCC5)cc(OC)c(OC(=O)Cc5ccccc5C)c4[C@]2(CCN3C)CC1=O [6f, (4bR,8aS,9S)-3,7-dimethoxy-11-methyl-6-oxo-1-(pyrrolidin-1-ylmethyl)-6,8a,9,10-tetrahydro-5H-9,4b-(epiminoethano)phenanthren-4-yl 2-(o-tolyl)acetate]",20.8 ± 5.63%,55.7 ± 6.94%,25 ± 1.05%,57.09 ± 0.06%,0%,31.4 ± 3.72%,7.82 ± 4.1%,58.7 ± 2.64%,72 to 75 °C,16.8 ± 2.39%,64.3 ± 14.6%,> 25 µM,25.1 ± 1.72 µM,> 25 µM,> 25 µM,10.1 ± 0.42 µM
